Results published in article PMC6476181 (ChemMedChem, 2019).

Columns and labels:
57 diverse kinases = experiment: Kinase selectivity panel of 57 diverse kinases; assay type: biochemical; details: 10 µM
[1] = test system: cancer cell motility and migration; experiment: Wound scratch assay; assay type: cell-based
[2] = test system: proliferation and viability of cells; experiment: Trypan blue exclusion, cells treated for 3 days; assay type: cell-based; details: comparison against genistein at 10 µM, p < 0.05
MEK4 [3] = target: T1, MEK4 (Homo sapiens, UniProt P45985); details: cited from earlier work
T1 sequence (P45985 1-399): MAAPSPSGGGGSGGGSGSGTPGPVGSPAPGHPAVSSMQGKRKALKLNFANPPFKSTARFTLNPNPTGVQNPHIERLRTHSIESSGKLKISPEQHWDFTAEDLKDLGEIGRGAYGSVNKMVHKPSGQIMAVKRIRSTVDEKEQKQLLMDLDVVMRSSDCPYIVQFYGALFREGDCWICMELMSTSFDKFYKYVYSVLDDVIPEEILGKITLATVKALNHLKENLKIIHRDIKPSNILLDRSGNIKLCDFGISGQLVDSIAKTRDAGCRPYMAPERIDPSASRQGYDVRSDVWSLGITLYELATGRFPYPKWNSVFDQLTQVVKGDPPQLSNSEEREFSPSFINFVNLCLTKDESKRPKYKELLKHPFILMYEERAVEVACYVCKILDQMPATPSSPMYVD

MEK7 = target: T2, MEK7 (Homo sapiens, UniProt O14733); details: cited from earlier work
T2 sequence (O14733 1-419): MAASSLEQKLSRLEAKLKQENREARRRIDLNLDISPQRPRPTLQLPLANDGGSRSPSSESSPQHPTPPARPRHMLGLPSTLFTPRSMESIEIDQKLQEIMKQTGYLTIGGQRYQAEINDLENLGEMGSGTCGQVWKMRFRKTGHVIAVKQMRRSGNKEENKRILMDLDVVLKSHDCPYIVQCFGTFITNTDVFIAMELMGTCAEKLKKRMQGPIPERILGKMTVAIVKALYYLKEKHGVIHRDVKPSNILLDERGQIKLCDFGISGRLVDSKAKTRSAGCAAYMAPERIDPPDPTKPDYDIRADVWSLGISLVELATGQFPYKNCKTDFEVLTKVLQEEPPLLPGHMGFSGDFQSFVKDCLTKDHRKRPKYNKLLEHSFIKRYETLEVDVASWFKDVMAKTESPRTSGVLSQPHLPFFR

Cot = details: ref 10a; cited from earlier work
MEK4 [4] = target: T1, MEK4; experiment: TR-FRET displacement of active site tracer; assay type: binding; details: 10 µM

O=C(O)c1ccc(-c2n[nH]c3cc(F)ccc23)cc1 [Compound 6ff, 4-(6-fluoro-2H-indazol-3-yl)benzoic acid]
number of kinases inhibited > 35% out of 57 tested (57 diverse kinases): 12
S(35) value (57 diverse kinases; 57 kinases): 0.21
efficacy in wound scratch assay ([1]; 10 µM): no efficacy
efficacy in wound scratch assay ([1]; 25 µM): no efficacy
toxicity (proliferation and viability, trypan blue exclusion) [2]: less toxicity compared to the promiscuous kinase inhibitor genistein

COc1ccc2c(Cc3ccc(O[Si](C)(C)C(C)(C)C)cc3)c3[n+](cc2c1OC)CCc1cc2c(cc1-3)OCO2 [HWY336]
inhibition of MEK4 (MEK4 [3]): inhibits both MEK4 and MEK7
inhibition of MEK7 (MEK7): inhibits both MEK4 and MEK7

O=c1c(-c2ccc(O)c(O)c2)coc2cc(O)ccc12 [THIF, 7, 3’, 4’-trihydroxyisoflavone]
inhibition of Cot activity (Cot): inhibits Cot activity

CN[C@@H]1C[C@H]2O[C@@](C)([C@@H]1OC)n1c3ccccc3c3c4c(c5c6ccccc6n2c5c31)C(=O)NC4 [staurosporine]
TR-FRET ratio, displacement of tracer bound to MEK4 active site (MEK4 [4]): background levels
